Measurements reported in patent US4315017A, “Triazole derivatives” (priority 1978, dated 1982).
Values joined by “and” are separate entries in the source; they are usually repeats but may differ in a detail not shown here. Equal entries are not always repeated.

Experiments:
Type in all cases: in vivo
[1] = test system: oriental cockroaches (Blatta orientalis); test: Synergistic action on oriental cockroaches, treated jar bottom; conditions: single substance; kill rate after 48 hours
Description: Synergistic action on oriental cockroaches (Blatta orientalis)
After the solvent has evaporated, 5 adult cockroaches (Blatta orientalis) are placed in each jar, and the kill rate is determined after 48 hours.
The application rates are in logarithmic progression and permit a dose-effect curve to be drawn; the LD50 is determined graphically and serves as a basis for assessment.

[2] = test system: houseflies (Musca domestica); test: Synergistic action on houseflies; continuous contact (Petri dish); conditions: single substance; kill rate after 4 hours
Description: Synergistic action on houseflies (Musca domestica); continuous contact
Both covers and bottoms of Petri dishes 10 cm in diameter are lined with a total per dish of 2 ml of acetonic solutions of the active ingredients. After the solvent has evaporated (about 30 mins.), 10 flies are introduced into each dish.
The kill rate is determined after 4 hours and the LD50 is determined graphically.

[3] = test system: houseflies (Musca domestica); test: Synergistic action on houseflies, dip experiment; conditions: single substance; active ingredient concentration in %
Description: Synergistic action on houseflies (Musca domestica; dip experiment)
100 ml of aqueous active ingredient formulations (active ingredient concentration in %) is poured over 20 adult houseflies (Musca domestica) on a filter in a nutsch (15 cm in diameter). A gauze lid prevents the animals from surfacing during treatment. After 5 seconds the formulation is filtered off and the flies are transferred to clean Petri dishes (10 cm in diameter) on the bottom of which a round filter paper has been placed.
The animals in supine position are counted after 4 and 24 hours.

[4] = test system: granery weevils (Sitophilus granarius); test: Synergistic action on granary weevils (treated Petri dishes); conditions: single substance; 4 hours exposure, kill rate after 24 hours
Description: Synergistic action on granery weevils (Sitophilus granarius)
Petri dishes 10 cm in diameter are lined with acetonic solutions of the active ingredients. After the solvent has evaporated, 50 granary weevils are placed in each dish.
After 4 hours, the weevils are transferred to untreated vessels. The kill rate is determined after 24 hours, by counting how many weevils are, after this period has elapsed, capable of leaving an untreated cardboard dish (40 mm in diameter, 10 mm high) within 60 minutes.

[5] = test system: houseflies (Musca domestica); test: Contact action on houseflies (application to ventral abdomen); conditions: single substance; kill rate after 4 hours
Description: Contact action on houseflies (Musca domestica)
1 μl of the active ingredient dissolved in acetone is administered to the ventral abdomen of 4-day old imagoes under slight CO2 narcosis. 20 animals treated in the same way are then placed in a cellophane bag having a volume of approximately 500 ml.
After 4 hours the kill rate is determined, a dose-mortality curve is drawn from the different concentrations, and the LD50 is worked out.

Row | Compound | LD 50 [1] | LD 50 [2] | LD 50 after 4 hours [3] | LD 50 after 24 hours [3] | LD 50 [4] | LD 50 [5]
1 | 2,5-diethylphenyl-N-methylcarbamate [Fenethcarb, reference compound] | 0.45 mg |  |  |  |  | 
2 | C=CCC1=C(C)C(OC(=O)C2C(C=C(C)C)C2(C)C)CC1=O (mixture of isomers) [Allethrin, DL-2-allyl-3-methylcyclopenten-2-on-(1)-yl-(4)-DL-cis,trans-chrysanthemate, reference compound] | 0.11 mg |  |  |  |  | 
3 | CCOC(=O)CC(SP(=S)(OC)OC)C(=O)OCC (centres unmarked) [Malathion, reference compound] | 0.12 mg |  |  |  |  | 
4 | ClC(Cn1cncn1)c1ccccc1 (centres unmarked) [No. 1] | > 5.0 mg | > 2.0 mg | 0.085% | 0.05% | > 2 mg and > 1 mg | 
5 | ClC(Cn1cncn1)c1ccccc1 (centres unmarked) [No. 2] | > 5.0 mg | 0.2 mg | > 0.2% | 0.1% |  | 
6 | Clc1ccc(C=Cn2cncn2)c(Cl)c1 [No. 3] | > 5.0 mg |  | 0.2% | 0.05% |  | 
7 | Fc1ccc(C=Cn2cncn2)cc1 [No. 4] | > 5.0 mg | > 2.0 mg |  |  |  | 
8 | c1ccc(CCCn2cncn2)cc1 [No. 5] | > 2.0 mg |  | > 0.2% | 0.05% | > 2 mg | > 10 μg/fly
9 | C(=Cc1ccccc1)Cn1cncn1 [No. 6] | 9.0 mg |  | > 0.2% | 0.07% | > 2 mg | 
10 | CC(c1ccccc1)n1cncn1 (centres unmarked) [No. 7] | > 2.0 mg |  |  |  |  | 
11 | C=C(Cn1cncn1)c1ccccc1 [No. 8] | 9.0 mg |  |  |  | > 2 mg | 
12 | Cc1ccc(Cn2cncn2)cc1 [No. 9] | > 2.0 mg |  |  |  | > 4 mg | 
13 | CCc1ccc(Cn2cncn2)cc1 [No. 10] | > 2.0 mg |  |  |  | > 2 mg | 
14 | CC(C)(C)c1ccc(Cn2cncn2)cc1 [No. 11] | > 10.0 mg |  |  |  | > 2 mg | 
15 | Cc1nc(N(C)C)nc(OC(=O)N(C)C)c1C [Pirimicarb, 2-dimethylamino-5,6-dimethyl-4-pyrimidinyl-N,N-dimethylcarbamate, reference compound] | > 30 mg |  | 0.05% | 0.04% |  | 
